Measured values reported in US5266594A, “Inhibitors of nitric oxide synthase and use thereof to prevent glutamate neurotoxicity” (priority 1992, dated 1993).
“Also recorded” adds a separate entry of the source. Where two headings read alike, the source gives them in different places.

What was measured:
[1] = biological target: brain NOS (cerebellar NOS) (Rattus norvegicus, UniProt P29476); test: inhibition of NOS activity, conversion of [^3 H]arginine to [^3 H]citrulline, cerebellar homogenates/supernatants in vitro; conditions: for inhibition of brain NOS, in words: guanidinoalkanoic acid series
Sequence of brain NOS (cerebellar NOS) (P29476 whole entry): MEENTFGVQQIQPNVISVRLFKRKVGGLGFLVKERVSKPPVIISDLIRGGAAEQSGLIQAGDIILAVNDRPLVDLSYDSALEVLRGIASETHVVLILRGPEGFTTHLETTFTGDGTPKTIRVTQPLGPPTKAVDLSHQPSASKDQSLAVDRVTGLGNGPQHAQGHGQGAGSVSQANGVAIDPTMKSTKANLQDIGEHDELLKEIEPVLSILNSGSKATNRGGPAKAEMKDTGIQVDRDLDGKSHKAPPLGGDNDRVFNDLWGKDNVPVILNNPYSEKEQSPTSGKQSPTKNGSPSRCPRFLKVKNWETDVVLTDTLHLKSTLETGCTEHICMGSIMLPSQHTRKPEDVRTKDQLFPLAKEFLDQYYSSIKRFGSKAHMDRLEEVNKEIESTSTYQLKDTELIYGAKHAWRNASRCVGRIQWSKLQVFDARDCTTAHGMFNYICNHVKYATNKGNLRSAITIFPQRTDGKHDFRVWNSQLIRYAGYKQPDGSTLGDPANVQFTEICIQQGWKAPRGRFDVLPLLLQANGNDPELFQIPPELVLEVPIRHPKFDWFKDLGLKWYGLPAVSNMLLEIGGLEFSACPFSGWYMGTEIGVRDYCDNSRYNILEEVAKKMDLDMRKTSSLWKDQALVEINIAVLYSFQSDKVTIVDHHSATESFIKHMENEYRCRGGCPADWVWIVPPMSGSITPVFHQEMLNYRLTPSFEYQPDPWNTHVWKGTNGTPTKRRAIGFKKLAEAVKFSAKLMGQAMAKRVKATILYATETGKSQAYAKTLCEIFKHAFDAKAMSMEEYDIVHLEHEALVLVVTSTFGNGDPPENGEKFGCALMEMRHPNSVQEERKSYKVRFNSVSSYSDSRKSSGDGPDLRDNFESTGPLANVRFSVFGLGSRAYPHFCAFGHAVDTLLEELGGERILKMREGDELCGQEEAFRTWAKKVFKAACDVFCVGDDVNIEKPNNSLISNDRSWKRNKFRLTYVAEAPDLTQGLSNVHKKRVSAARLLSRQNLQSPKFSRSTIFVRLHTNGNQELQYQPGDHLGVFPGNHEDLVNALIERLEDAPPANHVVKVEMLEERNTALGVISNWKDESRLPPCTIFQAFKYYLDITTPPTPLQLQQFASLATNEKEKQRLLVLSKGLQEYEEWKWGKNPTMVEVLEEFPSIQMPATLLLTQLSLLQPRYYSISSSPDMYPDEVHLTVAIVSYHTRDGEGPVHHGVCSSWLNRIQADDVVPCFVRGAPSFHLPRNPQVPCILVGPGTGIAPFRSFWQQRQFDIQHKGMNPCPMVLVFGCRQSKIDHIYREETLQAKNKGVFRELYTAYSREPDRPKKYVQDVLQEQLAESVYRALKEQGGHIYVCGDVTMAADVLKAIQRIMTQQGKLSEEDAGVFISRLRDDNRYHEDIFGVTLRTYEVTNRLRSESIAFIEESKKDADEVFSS
Description: (§1) Inhibitors of NOS are compounds which compete for the substrate binding site of NOS or other sites on the enzyme, and include both reversible and irreversible inhibitors. The present invention contemplates the use of any physiologically acceptable inhibitor which inhibits NOS activity. The effectiveness of a compound, and its relative potency as an NOS inhibitor, can be tested and routinely determined by measuring inhibition of NOS activity by monitoring the conversion of arginine to citrulline by NOS in, for example, cerebellar homogenates. A reduction in citrulline formation indicates inhibitory activity of the compound. The percent reduction in citrulline formation, compared to the amount of citrulline formed in the absence of the compound being tested, indicates the potency of the compound as an NOS inhibitor.
Rat cerebella were homogenized in 10 vols. (w/v) […] Tris (pH 7.4), 2 mM EDTA. Homogenates were centrifuged at 10,000×g for 15 minutes at 4° C. Supernatant preparations were used in the enzyme assays. Cerebellar tissue was dialyzed (Spectra/Por, 10,000 MWCO, EDTA-treated cellulose dialysis tubing) against 20 mM Tris (pH 7.4), 2 mM EDTA (300 ml×2) for 24 hours at 4° C.
Cerebellar homogenates were incubated with arginine derivatives for one hour at 4° C., and dialyzed overnight. Aliquots (25 μg protein) were assayed for NOS activity before and after dialysis.
(§2) NOS activity was measured by monitoring the conversion of [^3 H]arginine to [^3 H]citrulline as described by Bredt and Snyder (Proc. Natl. Acad. Sci USA (1990) 87682-685). Briefly, enzyme assays contained 25 μl of soluble tissue, 50 μl of […] [^3 H]arginine and 1 mM NADPH, and 25 μl of 3 mM CaCl2. After a 15 minute incubation at room temperature, the assays were terminated with 3 ml of 20 mM Hepes (pH 5.5) with 2 mM EDTA, and were applied to 0.5 ml columns of Dowex AG50WX8 (Na^+ form). [^3 H]citrulline was quantified by liquid scintillation spectroscopy of the 3 ml flow-through.
(§3) Accordingly, the effects of 2, 4 and 24 hours of preincubations of cerebellar supernatants (FIG. 2A) and activated macrophage homogenates (FIG. 2B) with NO2 Arg were examined. The preincubation was conducted at 4° C. since NOS is unstable at higher temperature for long periods of time. Enzymatic incubation was conducted for only 5 minutes to minimize any reaction of the inhibitor with the enzyme in the course of the incubation procedure.
Cerebellar supernatants were made as described in Example 1.

[2] = test system: macrophage NOS (activated macrophage homogenates); test: inhibition of NOS activity in activated macrophage homogenates in vitro; format: biochemical; conditions: guanidinoalkanoic acid series
Description: as §1, §2, §3
Macrophages were activated as described by Tayeh and Marletta (J. Biol. Chem. (1989) 264:19654-19658) with 3.5 ng/ml LPS from E. coli and 5 units/ml recombinant murine γ-interferon for 24 hours at 37° C. Cells were homogenized in 20 mM Hepes (pH 7.4).

[3] = test system: brain or macrophage enzyme (NOS); test: NOS inhibition and brain/macrophage selectivity of arginine, nitroarginine and guanidinoalkanoic acid analogs; format: biochemical
cortical cell cultures [4] = test: cells; format: cell-based, rat; conditions: for reversal of NO2 Arg protection from NMDA cytotoxicity: L-Arg 1 mM with 100 μM NO2 Arg, homoarginine, D-Arg, FIG. 7; for EC50: cortical cultures; for effect on NMDA-induced cell death: 300 μM NMDA (with 10 μM glycine), Hb at 500 μM; for effect on SNP-induced cell death: Hb 500 μM
Protocol: Primary dissociated cell cultures were prepared from fetal rats (13-to 14-day gestation for cortex and caudate-putamen cultures and 19- to 20-day gestation for hippocampal cultures). The tissue of interest was dissected, incubated for 15 minutes in 0.027% trypsin in Brooks-Logan solution (5% phosphate-buffered saline/0.04M sucrose/10 mM Hepes/0.03M glucose, pH 7.4), and then transferred to modified Eagle's medium (MEM) 10% horse serum/10% fetal bovine serum/2 mM glutamine for trituration. Dissociated cells were plated at a density of 3-4×10^5 cells per well in polyornithine-coated 15-mm multiwell plates. After 4 days the cells were treated with 10 μg of 5-fluoro-2'-deoxyuridine to prevent proliferations of noneuronal cells. Cells were maintained in MEM/5% horse serum/2 mM glutamine in 8% CO2 /humidified atmosphere at 37° C. The medium was changed twice weekly. Mature neurons (3-4 weeks) were used.
Cells were exposed to excitatory amino acids according to the method of Koh and Choi (J. Neurosci. (1988) 8:2153-2163). Before exposure, the cells were washed three times with Tris-buffered control salt solution (CSS), containing 120 mM NaCl/5.4 mM KCl/1.8 mM CaCl2 /25 mM Tris hydrochloride, pH 7.4 at room temperature/15 mM glucose. Brief exposures to glutamate, NMDA (plus 10 μM glycine), quisqualate, and sodium nitroprusside (SNP) were performed for 5 minutes in CSS. The exposure solution was then washed away and replaced by MEM with 21 mM glucose; then the cells were placed in an incubator for 20-24 hour. Long exposures to kainate were performed in MEM/21 mM glucose for 20-24 hour in the incubator. After exposure to the excitatory amino acids, the medium was replaced by CSS/0.4% trypan blue, which stains nonviable cells. Two to four photographs (10-20×) were made of each well, and viable versus nonviable cells were counted. The cytotoxicity data represent 6-24 separate wells assayed per data point, with ≈500-1500 cells counted per well. Neuronal cell injury was also assessed by measuring the release of lactate dehydrogenase by damaged or destroyed cells into the extracellular fluid following drug exposure.
Before initiating cytotoxicity experiments with NOS inhibitors, the potency of NMDA applied for 5 minutes in inducing cell death was evaluated by examining exclusion of 0.4% trypan blue by viable cells or measuring lactate dehydrogenase released by damaged or destroyed cells into the extracellular fluid.
To examine the role of NO in other forms of glutamate neurotoxicity, the effects of NO2 Arg cytotoxicity induced by quisqualate, kainate, and NMDA were compared. […] Data are means ±SEM (n=6-24). Cell death was determined by 0.4% trypan blue exclusion by viable cells.

NOS = conditions: cited from earlier work
cGMP formation = cGMP formation in cortical cell cultures (RIA); format: cell-based, rat; conditions: for effect on NMDA stimulation of cGMP formation: 300 μM NMDA (plus 10 μM glycine), 1 minute, 100 μM NO2 Arg, 1 mM L-Arg, 100 units of SOD, 500 μM Hb
Protocol: Primary dissociated cell cultures were prepared from fetal rats (13-to 14-day gestation for cortex and caudate-putamen cultures and 19- to 20-day gestation for hippocampal cultures). […] Dissociated cells were plated at a density of 3-4×10^5 cells per well in polyornithine-coated 15-mm multiwell plates. After 4 days the cells were treated with 10 μg of 5-fluoro-2'-deoxyuridine to prevent proliferations of noneuronal cells. Cells were maintained in MEM/5% horse serum/2 mM glutamine in 8% CO2 /humidified atmosphere at 37° C. The medium was changed twice weekly. Mature neurons (3-4 weeks) were used.
For determination of cGMP the cells were washed three times with CSS. […] After ether extraction, cGMP levels were determined by RIA.
Data are means ±SEM (n=6-8).
Data are means ±SEM (n=8-12).

cortical cell cultures [5] = conditions: Koh et al. (1990); cited from earlier work

N=C(N)NCCCCC(=O)O [5-GPA, 5-guanidinopentanoic acid]
inhibition of brain NOS, in words [1]: inactive against the brain NOS
inhibition of macrophage enzyme, in words [2]: potent inhibitors
selectivity between brain and macrophage enzyme, in words [3]: good selectivity toward the macrophage enzyme

N=C(N)NCCCCCC(=O)O [6-GHA, 6-guanidinohexanoic acid]
inhibition of brain NOS, in words [1]: inactive against the brain NOS
inhibition of macrophage enzyme, in words [2]: potent inhibitors
selectivity between brain and macrophage enzyme, in words [3]: good selectivity toward the macrophage enzyme

N=C(N)NCCC[C@@H](N)C(=O)O [D-Arg, D-arginine]
reversal of NO2 Arg protection from NMDA cytotoxicity (cortical cell cultures [4]): much weaker than L-Arg; also recorded: comparable to that obtained with 10 μM L-Arg

N=C(N)NCCCC[C@H](N)C(=O)O [Homoarginine, homoarginine]
reversal of NO2 Arg protection from NMDA cytotoxicity (cortical cell cultures [4]): reverses effects of NO2 Arg but is less potent than L-Arg
affinity for NOS (NOS; Knowles et al. (1989)): less affinity for NOS than L-Arg

N=C(N)NCCC[C@H](N)C(=O)O [L-Arg, L-arginine]
reversal of NO2 Arg protection from NMDA cytotoxicity (cortical cell cultures [4]): reverses the inhibition by 100 μM NO2 Arg
reversal of NO2 Arg protection from NMDA cytotoxicity (cortical cell cultures [4]; listed as L-arginine): competitively reversed by L-arginine
reversal of NO2 Arg protection from NMDA cytotoxicity (cortical cell cultures [4]; listed as L-arginine (L-Arg)): completely reverses the effect of NO2 Arg
concentration required to obtain maximal NMDA effects (cortical cell cultures [4]; graded L-Arg added to L-Arg-free medium): 100 µM
protection against quisqualate-induced cell death (cortical cell cultures [4]; quisqualate): reversal by L-Arg
effect on NMDA stimulation of cGMP formation (cGMP formation): competitively reversible by L-Arg

CNC(=N)NCCC[C@H](N)C(=O)O [MeArg, L-N^ω -monomethylarginine]
relative potency as inhibitor of NOS activity ([1]; cerebellar supernatant preparations, FIG. 1): NO2 Arg is a more potent inhibitor of NOS activity than MeArg
prevention of neurotoxicity, in words (cortical cell cultures [4]): prevent neurotoxicity in proportion to their relative potencies as NOS inhibitors
EC50 (cortical cell cultures [4]; Rattus norvegicus, NMDA and related excitatory amino acids, read-out: EC50 for preventing neurotoxicity elicited by N-methyl-D-aspartate): 170 µM
EC50 (cortical cell cultures [4]; Rattus norvegicus, NMDA, read-out: concentration giving 50% prevention of NMDA-induced cell death): 170 µM
Ki (NOS; Dwyer et al. (1991), read-out: Ki, inhibition of NOS activity of purified enzyme preparations): 2000 nM

CN[C@H](CC(=O)O)C(=O)O [NMDA, N-methyl-D-aspartate]
CC50 (cortical cell cultures [4]; Rattus norvegicus, 5 min, read-out: toxic LD50): 0.28 mM
cytotoxicity at 300 µM (cortical cell cultures [4]; Rattus norvegicus, 5 min, 300 μM, 5 minutes, read-out: cell death at 300 μM NMDA): 60%
cytotoxicity at 300 µM (cortical cell cultures [4]; Rattus norvegicus, 300 μM NMDA + 10 μM glycine alone, read-out: Cell death, % ± SEM (NMDA)): 57.8 ± 2.6%
CC50 (cortical cell cultures [4]; Rattus norvegicus, arginase-treated preparations / L-Arg-free medium, read-out: 50% lethal concentration): 7.5 mM
increase of the 50% lethal concentration of NMDA (cortical cell cultures [4]; arginase-treated preparations / L-Arg-free medium): > 20 fold

N[C@@H](CCC(=O)O)C(=O)O [glutamate]
Cell death, % ± SEM (glutamate) (cortical cell cultures [4]; 500 μM glutamate alone): 48.4 ± 4.4%

C=C(C)[C@H]1CN[C@H](C(=O)O)[C@H]1CC(=O)O [kainate]
cytotoxicity at 100 µM (cortical cell cultures [4]; Rattus norvegicus, read-out: Cell death, % ± SEM (kainate)): 81.4 ± 7.1%
neurotoxic action relative to NMDA (cortical cell cultures [5]): act more slowly and less potently than NMDA

N[C@@H](Cn1oc(=O)[nH]c1=O)C(=O)O [quisqualate]
cytotoxicity at 500 µM (cortical cell cultures [4]; Rattus norvegicus, 500 μM quisqualate alone, read-out: Cell death, % ± SEM (quisqualate)): 64.2 ± 3.7%
neurotoxic action relative to NMDA (cortical cell cultures [5]): act more slowly and less potently than NMDA

Hb: reduced hemoglobin (Hb), which binds NO
effect on NMDA-induced cell death (cortical cell cultures [4]): completely prevents NMDA-induced cell death; also recorded: reverses cell death
effect on NMDA-induced cell death (cortical cell cultures [4]; listed as Hemoglobin): prevents neurotoxic effects of both N-methyl-D-aspartate and sodium nitroprusside
effect on SNP-induced cell death (cortical cell cultures [4]): completely prevents SNP-induced cell death; also recorded: completely reverses SNP-mediated cytotoxicity
effect on SNP-induced cell death (cortical cell cultures [4]; listed as Hemoglobin): prevents neurotoxic effects of both N-methyl-D-aspartate and sodium nitroprusside
effect on NMDA stimulation of cGMP formation (cGMP formation): antagonized
effect on cGMP levels in cortical cells (SNP) (cGMP formation; SNP, 1-minute exposure): blocked by Hb; also recorded: completely reverses SNP-mediated cytotoxicity and cGMP formation
